Results from ChEMBL document CHEMBL3991601, “The target landscape of clinical kinase drugs” (Science, 2017).
Activity calls are given as the source filed them. Rule as the data show it, for most assays here: actives have a measured Kd and inactives only a lower limit.

How the values were obtained:
[1] = target: T1, Very long-chain specific acyl-CoA dehydrogenase, mitochondrial (Homo sapiens, UniProt P49748)
T1 sequence (P49748 whole entry): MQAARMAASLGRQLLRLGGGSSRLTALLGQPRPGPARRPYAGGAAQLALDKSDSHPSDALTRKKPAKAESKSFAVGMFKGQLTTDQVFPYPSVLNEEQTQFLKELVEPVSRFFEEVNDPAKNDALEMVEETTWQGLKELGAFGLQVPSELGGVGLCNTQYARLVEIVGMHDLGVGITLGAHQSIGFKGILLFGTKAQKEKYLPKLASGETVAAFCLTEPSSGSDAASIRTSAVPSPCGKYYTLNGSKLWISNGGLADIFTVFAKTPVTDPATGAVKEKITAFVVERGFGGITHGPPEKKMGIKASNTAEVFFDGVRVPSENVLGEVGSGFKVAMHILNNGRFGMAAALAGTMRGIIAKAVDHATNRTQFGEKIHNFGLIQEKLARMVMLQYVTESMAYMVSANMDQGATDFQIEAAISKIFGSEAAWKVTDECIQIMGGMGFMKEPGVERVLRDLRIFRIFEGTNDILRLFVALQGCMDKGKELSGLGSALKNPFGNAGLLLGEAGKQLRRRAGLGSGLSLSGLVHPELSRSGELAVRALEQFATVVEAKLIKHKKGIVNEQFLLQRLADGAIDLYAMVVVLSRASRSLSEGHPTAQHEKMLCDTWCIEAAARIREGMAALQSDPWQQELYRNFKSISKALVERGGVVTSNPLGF

[2] = target: Eukaryotic translation initiation factor 2-alpha kinase 1 (Homo sapiens, UniProt Q9BQI3)
[3] = target: Cyclin-dependent kinase 6 (Homo sapiens, UniProt Q00534)
[4] = target: Serine/threonine-protein kinase N2 (Homo sapiens, UniProt Q16513)
[5] = target: T2, Interleukin-1 receptor-associated kinase 4 (Homo sapiens, UniProt Q9NWZ3)
T2 sequence (Q9NWZ3 whole entry): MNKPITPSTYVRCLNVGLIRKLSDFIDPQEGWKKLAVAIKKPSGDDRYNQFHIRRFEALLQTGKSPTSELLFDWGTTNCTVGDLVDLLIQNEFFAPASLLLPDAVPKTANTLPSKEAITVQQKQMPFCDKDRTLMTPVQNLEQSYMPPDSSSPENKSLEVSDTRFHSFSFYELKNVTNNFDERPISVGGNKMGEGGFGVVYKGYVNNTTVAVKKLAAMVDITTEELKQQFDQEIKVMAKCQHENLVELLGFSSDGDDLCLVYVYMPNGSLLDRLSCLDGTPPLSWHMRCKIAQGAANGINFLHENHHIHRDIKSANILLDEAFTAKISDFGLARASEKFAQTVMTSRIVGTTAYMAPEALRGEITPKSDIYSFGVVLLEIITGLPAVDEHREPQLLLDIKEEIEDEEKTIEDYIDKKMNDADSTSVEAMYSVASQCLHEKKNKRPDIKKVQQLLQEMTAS

[6] = target: T3, Serine/threonine-protein kinase PLK4 (Homo sapiens, UniProt O00444)
T3 sequence (O00444 whole entry): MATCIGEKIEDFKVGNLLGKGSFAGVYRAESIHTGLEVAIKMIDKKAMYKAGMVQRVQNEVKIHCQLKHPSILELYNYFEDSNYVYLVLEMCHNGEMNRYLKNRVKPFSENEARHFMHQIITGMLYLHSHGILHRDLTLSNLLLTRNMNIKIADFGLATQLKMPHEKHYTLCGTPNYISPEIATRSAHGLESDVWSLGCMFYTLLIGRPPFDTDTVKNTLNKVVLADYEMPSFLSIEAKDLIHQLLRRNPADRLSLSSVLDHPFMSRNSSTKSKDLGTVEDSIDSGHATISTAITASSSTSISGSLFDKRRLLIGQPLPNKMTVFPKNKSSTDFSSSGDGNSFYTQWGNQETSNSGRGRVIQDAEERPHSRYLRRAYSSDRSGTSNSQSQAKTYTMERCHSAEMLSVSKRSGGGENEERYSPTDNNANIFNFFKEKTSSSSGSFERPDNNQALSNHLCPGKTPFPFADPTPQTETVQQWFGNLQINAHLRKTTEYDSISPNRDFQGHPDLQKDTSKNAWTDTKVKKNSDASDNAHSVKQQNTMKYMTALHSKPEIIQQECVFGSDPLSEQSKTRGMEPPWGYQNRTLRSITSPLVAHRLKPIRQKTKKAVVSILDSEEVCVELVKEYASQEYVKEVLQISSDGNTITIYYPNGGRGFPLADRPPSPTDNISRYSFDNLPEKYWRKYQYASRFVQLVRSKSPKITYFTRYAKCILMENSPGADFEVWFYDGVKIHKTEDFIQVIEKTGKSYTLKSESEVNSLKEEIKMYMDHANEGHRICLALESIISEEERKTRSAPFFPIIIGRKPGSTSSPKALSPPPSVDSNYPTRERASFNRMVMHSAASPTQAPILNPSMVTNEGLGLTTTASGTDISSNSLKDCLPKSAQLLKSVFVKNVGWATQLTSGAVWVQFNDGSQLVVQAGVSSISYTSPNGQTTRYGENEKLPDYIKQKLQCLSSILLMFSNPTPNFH

[7] = target: Platelet-derived growth factor receptor beta (Homo sapiens, UniProt P09619)
[8] = target: Serine/threonine-protein kinase 10 (Homo sapiens, UniProt O94804)
[9] = target: T4, Serine/threonine-protein kinase Chk1 (Homo sapiens, UniProt O14757)
T4 sequence (O14757 whole entry): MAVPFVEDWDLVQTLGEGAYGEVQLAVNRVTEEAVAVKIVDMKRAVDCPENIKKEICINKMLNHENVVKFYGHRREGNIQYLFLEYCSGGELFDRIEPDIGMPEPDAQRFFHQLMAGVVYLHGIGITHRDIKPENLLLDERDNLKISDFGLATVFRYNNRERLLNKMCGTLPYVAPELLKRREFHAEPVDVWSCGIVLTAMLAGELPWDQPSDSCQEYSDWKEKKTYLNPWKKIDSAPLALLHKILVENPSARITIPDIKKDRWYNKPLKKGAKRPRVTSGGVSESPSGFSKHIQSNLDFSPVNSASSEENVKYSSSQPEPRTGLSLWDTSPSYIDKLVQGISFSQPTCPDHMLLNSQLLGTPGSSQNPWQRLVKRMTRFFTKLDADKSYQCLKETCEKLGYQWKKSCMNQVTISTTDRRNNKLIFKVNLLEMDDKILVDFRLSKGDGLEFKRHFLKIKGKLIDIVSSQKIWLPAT

[10] = target: Serine/threonine-protein kinase SIK3 (Homo sapiens, UniProt Q9Y2K2)
[11] = target: Dual specificity tyrosine-phosphorylation-regulated kinase 1A (Homo sapiens, UniProt Q13627)
Also: in the data inactive means no Kd found up to 30 µM.

Sequence of Serine/threonine-protein kinase SIK3 (Q9Y2K2 whole entry): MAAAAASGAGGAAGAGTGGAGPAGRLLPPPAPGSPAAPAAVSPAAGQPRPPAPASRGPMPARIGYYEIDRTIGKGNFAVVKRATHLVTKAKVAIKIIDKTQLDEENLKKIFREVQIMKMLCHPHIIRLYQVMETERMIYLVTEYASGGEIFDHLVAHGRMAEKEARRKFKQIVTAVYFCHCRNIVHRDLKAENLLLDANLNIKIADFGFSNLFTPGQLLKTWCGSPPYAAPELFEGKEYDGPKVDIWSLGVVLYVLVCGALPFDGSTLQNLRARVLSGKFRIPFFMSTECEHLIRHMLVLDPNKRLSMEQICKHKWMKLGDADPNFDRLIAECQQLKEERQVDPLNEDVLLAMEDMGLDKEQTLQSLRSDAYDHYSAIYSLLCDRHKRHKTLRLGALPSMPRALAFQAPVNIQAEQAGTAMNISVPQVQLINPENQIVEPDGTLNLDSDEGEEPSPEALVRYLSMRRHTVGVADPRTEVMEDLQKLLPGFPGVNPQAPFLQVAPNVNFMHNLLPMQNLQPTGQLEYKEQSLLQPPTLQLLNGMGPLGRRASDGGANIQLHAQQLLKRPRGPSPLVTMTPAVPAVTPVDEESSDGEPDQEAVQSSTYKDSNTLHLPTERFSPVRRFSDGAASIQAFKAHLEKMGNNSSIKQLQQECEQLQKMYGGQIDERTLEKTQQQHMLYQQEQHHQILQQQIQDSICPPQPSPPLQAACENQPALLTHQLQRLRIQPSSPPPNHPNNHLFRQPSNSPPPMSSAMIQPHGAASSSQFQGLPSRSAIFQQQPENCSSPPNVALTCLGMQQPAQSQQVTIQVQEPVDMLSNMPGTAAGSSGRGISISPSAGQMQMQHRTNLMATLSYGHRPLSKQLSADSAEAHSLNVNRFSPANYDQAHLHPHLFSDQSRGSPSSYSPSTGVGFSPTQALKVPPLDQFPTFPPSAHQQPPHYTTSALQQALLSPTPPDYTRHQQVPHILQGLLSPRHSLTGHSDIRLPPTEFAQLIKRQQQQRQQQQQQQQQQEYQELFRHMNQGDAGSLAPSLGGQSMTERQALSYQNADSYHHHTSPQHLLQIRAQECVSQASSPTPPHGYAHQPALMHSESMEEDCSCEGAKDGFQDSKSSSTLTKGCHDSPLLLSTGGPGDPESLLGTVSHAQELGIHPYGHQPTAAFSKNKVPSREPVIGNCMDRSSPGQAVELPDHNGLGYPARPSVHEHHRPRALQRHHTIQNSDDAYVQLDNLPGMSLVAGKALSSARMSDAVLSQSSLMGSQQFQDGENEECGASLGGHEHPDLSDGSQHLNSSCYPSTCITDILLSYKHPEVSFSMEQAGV
Sequence of Eukaryotic translation initiation factor 2-alpha kinase 1 (Q9BQI3 whole entry): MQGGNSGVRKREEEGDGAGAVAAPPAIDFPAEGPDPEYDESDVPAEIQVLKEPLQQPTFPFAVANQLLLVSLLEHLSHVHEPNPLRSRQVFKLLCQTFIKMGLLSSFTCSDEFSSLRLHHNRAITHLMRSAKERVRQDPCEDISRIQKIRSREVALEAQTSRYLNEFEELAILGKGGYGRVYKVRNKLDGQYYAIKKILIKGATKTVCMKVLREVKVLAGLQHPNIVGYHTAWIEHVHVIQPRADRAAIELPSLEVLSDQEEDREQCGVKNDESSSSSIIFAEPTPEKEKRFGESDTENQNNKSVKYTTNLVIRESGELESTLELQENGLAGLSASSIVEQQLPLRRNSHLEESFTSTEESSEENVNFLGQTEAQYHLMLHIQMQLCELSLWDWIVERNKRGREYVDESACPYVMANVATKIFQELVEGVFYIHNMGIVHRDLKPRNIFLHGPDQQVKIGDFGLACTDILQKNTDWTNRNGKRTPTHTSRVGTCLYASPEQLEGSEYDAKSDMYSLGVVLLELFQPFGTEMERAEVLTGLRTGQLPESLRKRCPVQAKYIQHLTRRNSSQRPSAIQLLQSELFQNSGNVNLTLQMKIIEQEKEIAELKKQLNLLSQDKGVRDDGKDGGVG
Sequence of Serine/threonine-protein kinase 10 (O94804 whole entry): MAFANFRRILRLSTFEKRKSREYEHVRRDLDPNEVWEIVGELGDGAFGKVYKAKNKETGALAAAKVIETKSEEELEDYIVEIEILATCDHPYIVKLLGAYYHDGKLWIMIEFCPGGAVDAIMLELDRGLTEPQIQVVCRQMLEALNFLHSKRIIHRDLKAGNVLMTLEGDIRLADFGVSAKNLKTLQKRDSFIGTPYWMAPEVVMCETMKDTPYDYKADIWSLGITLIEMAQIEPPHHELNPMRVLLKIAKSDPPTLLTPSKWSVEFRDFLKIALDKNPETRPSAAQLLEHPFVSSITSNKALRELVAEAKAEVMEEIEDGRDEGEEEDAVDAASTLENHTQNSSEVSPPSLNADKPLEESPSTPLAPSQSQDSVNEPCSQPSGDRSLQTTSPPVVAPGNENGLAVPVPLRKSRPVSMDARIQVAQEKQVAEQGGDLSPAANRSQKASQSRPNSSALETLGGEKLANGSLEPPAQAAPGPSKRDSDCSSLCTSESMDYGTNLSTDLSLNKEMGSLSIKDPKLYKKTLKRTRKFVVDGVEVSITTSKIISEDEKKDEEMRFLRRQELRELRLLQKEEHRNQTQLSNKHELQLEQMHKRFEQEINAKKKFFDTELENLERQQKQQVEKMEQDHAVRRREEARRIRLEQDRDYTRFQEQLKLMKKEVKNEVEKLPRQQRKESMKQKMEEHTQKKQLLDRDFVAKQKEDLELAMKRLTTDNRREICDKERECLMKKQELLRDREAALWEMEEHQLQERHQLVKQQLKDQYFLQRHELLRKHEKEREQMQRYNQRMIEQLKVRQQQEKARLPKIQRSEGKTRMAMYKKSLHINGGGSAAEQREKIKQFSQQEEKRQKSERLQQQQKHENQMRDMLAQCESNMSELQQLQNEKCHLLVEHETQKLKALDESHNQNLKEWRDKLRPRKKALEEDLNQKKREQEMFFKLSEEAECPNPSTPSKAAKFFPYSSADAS
Sequence of Platelet-derived growth factor receptor beta (P09619 whole entry): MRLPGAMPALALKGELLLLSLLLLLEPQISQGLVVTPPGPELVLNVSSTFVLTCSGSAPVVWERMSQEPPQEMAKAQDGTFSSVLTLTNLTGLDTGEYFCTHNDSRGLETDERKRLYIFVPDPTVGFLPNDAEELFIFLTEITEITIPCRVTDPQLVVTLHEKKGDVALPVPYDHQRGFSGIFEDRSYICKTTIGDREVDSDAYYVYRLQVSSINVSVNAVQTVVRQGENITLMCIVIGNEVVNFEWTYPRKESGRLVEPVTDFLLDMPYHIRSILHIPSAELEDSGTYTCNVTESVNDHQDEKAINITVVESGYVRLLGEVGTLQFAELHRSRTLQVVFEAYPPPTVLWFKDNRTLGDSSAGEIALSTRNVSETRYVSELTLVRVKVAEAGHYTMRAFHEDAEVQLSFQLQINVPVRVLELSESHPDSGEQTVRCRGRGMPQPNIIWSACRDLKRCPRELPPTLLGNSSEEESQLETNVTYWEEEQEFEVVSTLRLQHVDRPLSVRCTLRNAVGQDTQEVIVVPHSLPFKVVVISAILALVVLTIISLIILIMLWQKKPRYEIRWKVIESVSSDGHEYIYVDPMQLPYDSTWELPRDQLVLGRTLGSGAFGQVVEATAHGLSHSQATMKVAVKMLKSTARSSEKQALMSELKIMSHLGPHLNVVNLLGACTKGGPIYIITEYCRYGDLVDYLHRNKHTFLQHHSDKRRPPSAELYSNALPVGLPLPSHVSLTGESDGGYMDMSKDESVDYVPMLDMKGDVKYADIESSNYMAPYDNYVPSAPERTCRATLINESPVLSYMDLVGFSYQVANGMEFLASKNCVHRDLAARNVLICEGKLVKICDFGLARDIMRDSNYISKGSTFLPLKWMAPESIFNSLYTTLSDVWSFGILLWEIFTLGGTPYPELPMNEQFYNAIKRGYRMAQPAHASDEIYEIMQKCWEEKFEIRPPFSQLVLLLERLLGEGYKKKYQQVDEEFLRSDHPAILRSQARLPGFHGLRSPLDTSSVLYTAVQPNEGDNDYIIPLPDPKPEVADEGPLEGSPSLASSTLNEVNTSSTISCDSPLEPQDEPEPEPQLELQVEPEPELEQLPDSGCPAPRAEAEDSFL
Sequence of Serine/threonine-protein kinase N2 (Q16513 whole entry): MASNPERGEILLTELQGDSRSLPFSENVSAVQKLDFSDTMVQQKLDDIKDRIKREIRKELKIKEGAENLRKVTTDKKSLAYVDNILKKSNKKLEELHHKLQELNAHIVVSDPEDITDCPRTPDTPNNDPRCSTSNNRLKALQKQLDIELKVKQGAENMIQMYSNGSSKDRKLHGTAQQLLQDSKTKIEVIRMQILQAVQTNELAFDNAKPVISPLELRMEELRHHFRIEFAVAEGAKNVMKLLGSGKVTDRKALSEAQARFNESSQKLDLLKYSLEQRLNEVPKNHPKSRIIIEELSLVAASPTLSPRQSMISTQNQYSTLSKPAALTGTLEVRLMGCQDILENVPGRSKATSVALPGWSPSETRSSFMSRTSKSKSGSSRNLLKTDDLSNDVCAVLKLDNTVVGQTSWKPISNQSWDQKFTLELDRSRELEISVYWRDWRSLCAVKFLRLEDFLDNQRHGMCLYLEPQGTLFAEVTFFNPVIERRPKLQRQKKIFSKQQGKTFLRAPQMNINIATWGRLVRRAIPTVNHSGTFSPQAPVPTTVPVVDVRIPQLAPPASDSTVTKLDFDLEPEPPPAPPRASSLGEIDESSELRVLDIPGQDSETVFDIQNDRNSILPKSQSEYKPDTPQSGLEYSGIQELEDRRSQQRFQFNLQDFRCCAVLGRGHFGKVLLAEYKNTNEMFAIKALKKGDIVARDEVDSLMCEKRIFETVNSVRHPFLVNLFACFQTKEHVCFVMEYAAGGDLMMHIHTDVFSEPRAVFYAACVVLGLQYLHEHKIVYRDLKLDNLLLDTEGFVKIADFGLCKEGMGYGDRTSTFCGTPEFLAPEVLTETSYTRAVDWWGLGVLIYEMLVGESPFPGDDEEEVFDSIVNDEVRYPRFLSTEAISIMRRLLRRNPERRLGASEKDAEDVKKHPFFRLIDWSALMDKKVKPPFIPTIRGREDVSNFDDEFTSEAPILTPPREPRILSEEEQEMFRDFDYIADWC

Kd [1]	Kd [2]	Kd [3]	Kd [4]	Kd [5]	Kd [6]	Kd [7]	Kd [8]	Kd [9]	Kd [10]	Kd [11]	Compound
> 30 µM (inactive)	> 30 µM (inactive)	> 30 µM (inactive)	> 30 µM (inactive)	> 30 µM (inactive)	> 30 µM (inactive)	> 30 µM (inactive)	> 30 µM (inactive)	> 30 µM (inactive)	> 30 µM (inactive)	> 30 µM (inactive)	Cn1cc(-c2cnc3ccc4ccc(CS(=O)(=O)NCc5ccccn5)cc4c(=O)c3c2)cn1 [MK-8033]
> 30 µM (inactive)	> 30 µM (inactive)	> 30 µM (inactive)	> 30 µM (inactive)	1.47 µM (active)	> 30 µM (inactive)	0.543 µM	> 30 µM (inactive)	> 30 µM (inactive)	> 30 µM (inactive)	> 30 µM (inactive)	CN(C[C@@H]1COCCO1)S(=O)(=O)Nc1ccc2ccc3ncc(-c4cnn(C)c4)cc3c(=O)c2c1 [MK-2461]
> 30 µM (inactive)	> 30 µM (inactive)	> 30 µM (inactive)	> 30 µM (inactive)	> 30 µM (inactive)	–	> 30 µM (inactive)	> 30 µM (inactive)	> 30 µM (inactive)	–	> 30 µM (inactive)	CCn1cc(-c2ccnc3[nH]c(-c4cccc(CN(C)C)c4)cc23)c(-c2ccc(NC(=O)N(C)C)cc2)n1 [GSK-1070916]
> 30 µM (inactive)	–	> 30 µM (inactive)	> 30 µM (inactive)	> 30 µM (inactive)	0.003 µM (active)	> 30 µM (inactive)	0.379 µM (active)	> 30 µM (inactive)	> 30 µM (inactive)	> 30 µM (inactive)	CC(C)c1cc(CNc2nc(Nc3cc(C4CC4)[nH]n3)cc(N3CCN(C)CC3)n2)on1 [XL-228]

The next lines start with the compound.

Compound	Kd [1]	Kd [2]	Kd [3]	Kd [4]	Kd [5]	Kd [6]	Kd [7]	Kd [8]	Kd [9]	Kd [10]	Kd [11]
CN1C/C=C/CCOc2cccc(c2)-c2ccnc(n2)Nc2cccc(c2)C1 [ZOTIRACICLIB]	> 30 µM (inactive)	> 30 µM (inactive)	1.6 µM	0.141 µM	> 30 µM (inactive)	> 30 µM (inactive)	> 30 µM (inactive)	9.95 µM (active)	> 30 µM (inactive)	1.3 µM	5.62 µM
CC(=O)c1cnc2ccc(-c3cc(Cl)c(O)c(Cl)c3)nc2c1N[C@H]1CC[C@H](CN(C)C)CC1	> 30 µM (inactive)	> 30 µM (inactive)	> 30 µM (inactive)	> 30 µM (inactive)	–	–	0.103 µM (active)	0.014 µM (active)	> 30 µM (inactive)	0.356 µM (active)	0.01 µM (active)
Cc1cc(Nc2ncc(Cl)c(Nc3ccccc3S(=O)(=O)C(C)C)n2)c(OC(C)C)cc1C1CCNCC1 [CERITINIB]	> 30 µM (inactive)	> 30 µM (inactive)	> 30 µM (inactive)	> 30 µM (inactive)	> 30 µM (inactive)	7.1 µM (active)	> 30 µM (inactive)	> 30 µM (inactive)	> 30 µM (inactive)	> 30 µM (inactive)	> 30 µM (inactive)
Cc1nc2cc(-n3ncc(C(=O)c4cc5ccccc5[nH]4)c3N)ccc2[nH]1 [FGFR INHIBITOR DEBIO 1347]	–	> 30 µM (inactive)	> 30 µM (inactive)	> 30 µM (inactive)	> 30 µM (inactive)	> 30 µM (inactive)	> 30 µM (inactive)	> 30 µM (inactive)	> 30 µM (inactive)	> 30 µM (inactive)	> 30 µM (inactive)
C[C@@H](N)c1ccc(C(=O)Nc2ccnc3[nH]ccc23)cc1 [Y-39983]	> 30 µM (inactive)	> 30 µM (inactive)	> 30 µM (inactive)	0.028 µM (active)	> 30 µM (inactive)	> 30 µM (inactive)	> 30 µM (inactive)	> 30 µM (inactive)	> 30 µM (inactive)	0.071 µM (active)	> 30 µM (inactive)
N#CC1(c2ccc(NC(=O)c3cccnc3NCc3ccncc3)cc2)CCCC1 [RIVOCERANIB]	> 30 µM (inactive)	> 30 µM (inactive)	> 30 µM (inactive)	> 30 µM (inactive)	> 30 µM (inactive)	> 30 µM (inactive)	> 30 µM (inactive)	> 30 µM (inactive)	> 30 µM (inactive)	> 30 µM (inactive)	> 30 µM (inactive)
CNC(=O)c1cc(Oc2ccc(NC(=O)Nc3cc(C(C)(C)C)nn3-c3ccc4ncccc4c3)c(F)c2)ccn1 [REBASTINIB]	> 30 µM (inactive)	–	> 30 µM (inactive)	> 30 µM (inactive)	23.2 µM (active)	4.09 µM (active)	> 30 µM (inactive)	–	> 30 µM (inactive)	> 30 µM (inactive)	> 30 µM (inactive)
CCOc1cc2ncc(C#N)c(Nc3ccc(F)c(Cl)c3)c2cc1NC(=O)/C=C/CN(C)C [PELITINIB]	> 30 µM (inactive)	> 30 µM (inactive)	> 30 µM (inactive)	> 30 µM (inactive)	> 30 µM (inactive)	> 30 µM (inactive)	> 30 µM (inactive)	–	> 30 µM (inactive)	> 30 µM (inactive)	> 30 µM (inactive)
O=C(Nc1c[nH]nc1-c1nc2cc(CN3CCOCC3)ccc2[nH]1)NC1CC1 [AT-9283]	> 30 µM (inactive)	> 30 µM (inactive)	–	2.77 µM (active)	> 30 µM (inactive)	0.021 µM (active)	> 30 µM (inactive)	0.082 µM (active)	0.084 µM (active)	4.11 µM (active)	2.45 µM (active)
